Results: publication PMC4057759, “Biological Evaluation and 3D-QSAR Studies of Curcumin Analogues as Aldehyde Dehydrogenase 1 Inhibitors” (International Journal of Molecular Sciences, 2014)
Like-named read-outs stand apart in the source and are kept apart here.

Experiments:
baker's yeast ALDH1 = target: T1, baker's yeast ALDH1 (Saccharomyces cerevisiae, UniProt P46367); assay: In vitro ALDH1 inhibitory assay (propanal oxidation, NAD, OD 340 nm); format: biochemical; settings: for inhibitory activity on ALDH1 (in words): in vitro
T1 construct: purchased Sigma (St. Louis, MO, USA)
T1 sequence (P46367 25-519): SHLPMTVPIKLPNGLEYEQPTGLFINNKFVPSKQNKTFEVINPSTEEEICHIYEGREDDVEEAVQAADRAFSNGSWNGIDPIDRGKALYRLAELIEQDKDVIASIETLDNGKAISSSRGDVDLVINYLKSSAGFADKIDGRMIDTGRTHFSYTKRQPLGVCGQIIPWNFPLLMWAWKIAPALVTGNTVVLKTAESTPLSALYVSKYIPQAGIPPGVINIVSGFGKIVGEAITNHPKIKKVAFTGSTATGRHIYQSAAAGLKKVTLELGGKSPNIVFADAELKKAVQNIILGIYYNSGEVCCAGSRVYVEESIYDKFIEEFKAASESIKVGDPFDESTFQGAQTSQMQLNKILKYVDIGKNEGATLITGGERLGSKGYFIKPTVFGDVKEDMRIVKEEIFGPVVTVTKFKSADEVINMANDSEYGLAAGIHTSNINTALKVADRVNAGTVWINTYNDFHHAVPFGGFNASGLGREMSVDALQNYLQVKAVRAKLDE
Experimental: (§1) In vitro ALDH1 inhibitory assay was performed as follows. To a reaction mixture containing 1 mM EDTA, 100 mM KCl, 2 mM NAD, 0.1 M sodium phosphate buffer pH 7.4, 1 U/mg baker’s yeast ALDH1 was added by Multifunction microplatereader (Tecan Infinite 200, TECAN Austria GmbH, Männedorf, Switzerland). The reaction was started by the addition of 1 mM propanal in final volume of 300 μL and the optical density (OD) was read at 340 nm at 0 min (just after the addition of the substrate) and reacted for 5 min. The enzyme activity is expressed as OD/min at 25 °C at the pH 7.4. Results are the average of three experiments done in duplicate. […] The IC50 values in units of μM were transformed in pIC50 (–log IC50). The data was randomly divided into training set (26 samples) and test set (4 samples * carry out external validation).

ALDH1 = target: T2, ALDH1 (Saccharomyces cerevisiae, UniProt P46367); assay: Kinetic analysis of inhibition of ALDH1 (Lineweaver-Burk plots, propanal); format: biochemical, baker's yeast; settings: double-reciprocal plots, oxidation of propanal
T2 construct: purchased Sigma (St. Louis, MO, USA)
T2 sequence (P46367 25-519): T1 sequence (P46367 25-519)
Experimental: as §1, with “Figure 1. […] In vitro” for “In vitro”

Solubility (remark) = format: physicochemical
[1] = 1 mM propanal, 2 mM NAD, pH 7.4, 25 °C, read-out: IC50
[2] = Table 3, experimental activity, read-out: Actual pIC50 (converted)
[3] = Table 1, –log IC50, read-out: pIC50 (converted)

| Structure (SMILES) | IC50 (baker's yeast ALDH1; [1]) | IC50 (baker's yeast ALDH1; [2]) | further results |
| --- | --- | --- | --- |
| COc1cc(/C=C2\CNC/C(=C\c3cc(OC)c(O)c(OC)c3)C2=O)cc(OC)c1O [Compound 3] | 30 µM | 30.2 µM | – |
| O=C1/C(=C/c2ccc(O)c(O)c2)CNC/C1=C\c1ccc(O)c(O)c1 [Compound 4] | 39.4 µM | 39.8 µM | – |
| O=C(/C=C/c1ccc(O)c(O)c1)/C=C/c1ccc(O)c(O)c1 [Compound 5] | 23.6 µM | 23.4 µM | – |
| O=C1/C(=C/c2ccc(O)c(O)c2)CC/C1=C\c1ccc(O)c(O)c1 [Compound 6] | 3.41 µM | – | inhibition type (ALDH1): mixed-competitive inhibition type; IC50 (baker's yeast ALDH1; [3]): 3.47 µM; inhibitory activity on ALDH1 (in words) (baker's yeast ALDH1): high inhibitory activity; activity relative to curcumin (baker's yeast ALDH1; ratio of IC50 values): over 10 times |
| O=C1/C(=C/c2ccc(O)c(O)c2)CCC/C1=C\c1ccc(O)c(O)c1 [Compound 7] | – | – | IC50 (baker's yeast ALDH1; Actual pIC50, Table 3, experimental activity): 6.31 µM; IC50 (baker's yeast ALDH1; IC50, 1 mM propanal, 2 mM NAD, pH 7.4, 25 °C): 6.5 µM; inhibitory activity on ALDH1 (in words) (baker's yeast ALDH1): high inhibitory activity; IC50 (baker's yeast ALDH1; pIC50, Table 1, –log IC50): 6.31 µM |
| O=C1/C(=C/c2ccc(O)c(O)c2)COC/C1=C\c1ccc(O)c(O)c1 [Compound 8] | 7.9 µM | 7.94 µM | inhibitory activity on ALDH1 (in words) (baker's yeast ALDH1): high inhibitory activity |
| O=C1/C(=C/c2ccc(O)c(O)c2)CSC/C1=C\c1ccc(O)c(O)c1 [Compound 9] | 22.7 µM | 22.9 µM | – |
| O=C1/C(=C/c2ccc(O)cc2)CC/C1=C\c1ccc(O)cc1 [Compound 10] | 54.2 µM | 63.1 µM | – |
| O=C1/C(=C/c2ccc(O)cc2)COC/C1=C\c1ccc(O)cc1 [Compound 11] | 39.7 µM | 38.9 µM | IC50 (baker's yeast ALDH1; [3]): 38.9 µM |
| O=C1/C(=C/c2cc(O)cc(O)c2)CC/C1=C\c1cc(O)cc(O)c1 [Compound 12] | 43.2 µM | 43.7 µM | – |
| COc1cc(/C=C2\CC/C(=C\c3ccc(O)c(OC)c3)C2=O)ccc1O [Compound 13] | 24.2 µM | 24 µM | – |
| COc1cc(/C=C2\CSC/C(=C\c3ccc(O)c(OC)c3)C2=O)ccc1O [Compound 14] | 31.3 µM | 31.6 µM | – |
| COc1cc(/C=C2\COC/C(=C\c3cc(OC)c(O)c(OC)c3)C2=O)cc(OC)c1O [Compound 15] | 16.6 µM | 16.6 µM | – |
| COc1cc(/C=C2\COC/C(=C\c3cc(F)c(O)c(OC)c3)C2=O)cc(F)c1O [Compound 16] | 53.2 µM | 53.7 µM | – |
| O=C(/C=C/c1cc(Br)c(O)c(Br)c1)/C=C/c1cc(Br)c(O)c(Br)c1 [Compound 17] | 25.8 µM | 25.7 µM | – |
| O=C1/C(=C/c2cc(Br)c(O)c(Br)c2)CCC/C1=C\c1cc(Br)c(O)c(Br)c1 [Compound 18] | 17.5 µM | 17.4 µM | – |
| O=C1/C(=C/c2cc(Br)c(O)c(Br)c2)COC/C1=C\c1cc(Br)c(O)c(Br)c1 [Compound 19] | 18.7 µM | 18.6 µM | – |
| O=C1/C(=C/c2cc(Br)c(O)c(Br)c2)CSC/C1=C\c1cc(Br)c(O)c(Br)c1 [Compound 20] | 17.7 µM | 17.8 µM | – |
| COc1cc(/C=C2\CSC/C(=C\c3cc(OC)c(OC)c(OC)c3)C2=O)cc(OC)c1OC [Compound 21] | 63.1 µM | 63.1 µM | – |
| CN(C)c1ccc(/C=C2\CCC/C(=C\c3ccc(N(C)C)cc3)C2=O)cc1 [Compound 22] | 73.5 µM | 74.1 µM | – |
| CN(C)c1ccc(/C=C2\CSC/C(=C\c3ccc(N(C)C)cc3)C2=O)cc1 [Compound 23] | 69.4 µM | 69.2 µM | – |
| O=C1/C(=C/c2ccc(Br)cc2)CCC/C1=C\c1ccc(Br)cc1 [Compound 24] | 8.2 µM | 8.32 µM | inhibition type (ALDH1): mixed-competitive inhibition type; IC50 (baker's yeast ALDH1; [3]): 8.32 µM; inhibitory activity on ALDH1 (in words) (baker's yeast ALDH1): high inhibitory activity; solubility (Solubility (remark)): not good |
| O=C1/C(=C/c2cccs2)CC/C1=C\c1cccs1 [Compound 25] | 30.1 µM | 29.5 µM | IC50 (baker's yeast ALDH1; [3]): 29.5 µM |
| O=C1/C(=C/c2ccncc2)CSC/C1=C\c1ccncc1 [Compound 26] | 10.6 µM | 10.7 µM | – |
| O=C1/C(=C/c2ccccn2)CC/C1=C\c1ccccn1 [Compound 29] | – | 13.8 µM | IC50 (baker's yeast ALDH1; [3]): 13.8 µM |
| O=C1/C(=C/c2ccccn2)CCC/C1=C\c1ccccn1 [Compound 30] | 18.4 µM | 18.2 µM | – |
| COc1cc(/C=C/C(=O)CC(=O)/C=C/c2ccc(O)c(OC)c2)ccc1O [Curcumin] | 36.9 µM | – | – |
| CCN(CC)C(=S)SSC(=S)N(CC)CC [Disufiram, disulfiram, reference compound] | 2.91 µM | – | – |
